Results taken from PubChem BioAssay (NCI).
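Exposure lasted 48 hours, with cells grown in 96-well plates and compounds tested at five concentrations. The concentration for 50% growth inhibition is given as GI50. TGI marks complete inhibition of growth.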

Tests used:
Experiment in all cases: NCI-60 cell line screen, 48 h
LOX IMVI melanoma = test system: LOX IMVI melanoma
NCI-H522 lung = test system: NCI-H522 lung
OVCAR-5 ovarian = test system: OVCAR-5 ovarian
U251 CNS = test system: U251 CNS
UACC-62 melanoma = test system: UACC-62 melanoma
UO-31 renal = test system: UO-31 renal
CCRF-CEM leukemia = test system: CCRF-CEM leukemia
NCI-H23 lung = test system: NCI-H23 lung
NCI/ADR-RES ovarian = test system: NCI/ADR-RES ovarian
HOP-92 NSCLC = test system: HOP-92 NSCLC

SMILES | GI50 (LOX IMVI melanoma) [µM] | TGI (LOX IMVI melanoma) [µM] | GI50 (NCI-H522 lung) [µM] | TGI (NCI-H522 lung) [µM] | GI50 (OVCAR-5 ovarian) [µM] | TGI (OVCAR-5 ovarian) [µM] | GI50 (U251 CNS) [µM] | TGI (U251 CNS) [µM] | GI50 (UACC-62 melanoma) [µM] | TGI (UACC-62 melanoma) [µM] | GI50 (UO-31 renal) [µM] | TGI (UO-31 renal) [µM] | GI50 (CCRF-CEM leukemia) [nM] | TGI (CCRF-CEM leukemia) [µM] | GI50 (NCI-H23 lung) [µM] | TGI (NCI-H23 lung) [µM] | GI50 (NCI/ADR-RES ovarian) [µM] | TGI (NCI/ADR-RES ovarian) [µM] | TGI (HOP-92 NSCLC) [µM]
CC(=O)[CH-]C(=O)c1ccccc1.CC(=O)[CH-]C(=O)c1ccccc1.CCOCC[O-].CCOCC[O-].[Ti+4] | 37.8 | > 100 | 17 | 36.5 | 26.8 | 60.7 | 16 | 42.2 | 15.5 | 37.8 | 17.6 | 49.5 |  |  |  |  |  |  | 
Cc1cn2c(/C=N/N=C(N)N)c(-c3cccs3)nc2s1 |  |  | 16.9 | 47.9 | 2.37 | 7.37 | 1.77 | 3.86 | 1.64 | 3.12 | 16.6 | 38.9 | 1340 | 3.24 | 11.7 | 24 | 15.3 | 28.7 | 
C=C[C@@]1(O)CCCC2=C(C(=O)OCC)CC[C@]21C |  |  |  | > 100 |  | > 100 |  | > 100 |  |  |  | > 100 |  | > 100 |  | > 100 |  |  | > 100
O=c1c2cccc3cccc(c4n1CCN=4)c32 |  | 80.5 |  | > 100 |  | > 100 |  | > 100 |  | > 100 |  | > 100 |  | > 100 |  | > 100 |  |  | > 100
COC(C(=O)NCCCCNC(=O)C(OC)c1ccccc1)c1ccccc1 (stereo unspecified) |  | > 100 |  | > 100 |  | > 100 |  | > 100 |  | > 100 |  | > 100 |  | > 100 |  | > 100 |  |  | > 100
FC(F)(F)C1(Br)C(c2ccccc2)=C1c1ccccc1 |  | 28 |  |  |  | 52 |  | 30.2 |  | 30.8 |  | 33.9 |  | 30.2 |  | 32.7 |  |  | 32.2
CC(C)(C)C(=O)OCC1CCC(n2cnc3c(=O)[nH]c(N)nc32)O1 (stereo unspecified) |  | > 100 |  |  |  | > 100 |  | > 100 |  | > 100 |  | > 100 |  | > 100 |  | > 100 |  |  | > 100
N#CCN/C=C\C(=O)c1ccc(Cl)cc1 | 31.5 | > 100 | > 100 | > 100 | 37.6 | 97.3 | 70.7 | > 100 | 15.7 | 49.3 | 42.1 | > 100 | 398 | > 100 | 32.9 | 86.2 | 28.9 | 79.5 | 
COc1cc(CNc2ccccc2C(=O)N2CCN(C(=O)c3cc(-c4cc(OC)c(OC)c(OC)c4)n4nc(-c5ccccc5)cc4n3)CC2)cc(OC)c1OC | 4.86 | > 100 | 2.22 | > 100 | 10.9 | > 100 | 3.37 | 70.3 | 2.37 | > 100 | 1.54 | > 100 |  |  | 4.96 | > 100 | 1.95 | 5.76 | 
O=c1[nH]c2cc(Cl)ccc2nc1/C(=N\O)C(O)c1ccc([N+](=O)[O-])cc1 (stereo unspecified) |  | > 100 |  |  |  |  |  | > 100 |  | > 100 |  | > 100 |  | > 100 |  |  |  |  | 
CC1=NN(C(=O)c2ccc([N+](=O)[O-])cc2)C(=O)C1N=Nc1ccccc1C(=O)O (stereo unspecified) |  |  |  | > 100 |  | > 100 |  | > 100 |  | > 100 |  | > 100 |  | > 100 |  | > 100 |  |  | 97.2
COc1ccc(/C=N\Nc2ccc([N+](=O)[O-])cn2)cc1OC | > 100 | > 100 | > 100 | > 100 | > 100 | > 100 | 3.56 | 74.2 | > 100 | > 100 | 3.14 | > 100 | > 100000 | > 100 | 53.2 | > 100 | > 100 | > 100 | 
C/C=C/CC(C)[C@@H](O)[C@H](NC)C(=O)O (stereo partly specified) |  | > 100 |  | > 100 |  | > 100 |  | > 100 |  | > 100 |  | > 100 |  | > 100 |  | > 100 |  |  | > 100
Cc1cc(C)c(Cn2cnc3c(Cl)ncnc32)c(C)c1CCl | 0.652 | 8.69 | > 100 | > 100 | > 100 | > 100 | 2.77 | 45.4 | 61.3 | > 100 | > 100 | > 100 | 24900 | 95.2 | 90.7 | > 100 | > 100 | > 100 | 
SCCSCCCSCCS |  | > 100 |  | > 100 |  | > 100 |  | > 100 |  | > 100 |  | > 100 |  | 41.5 |  | > 100 |  | > 100 | 
Cc1cc(N(CCC#N)S(C)(=O)=O)ccc1C=Nc1ccc(C(=O)NN2C(=O)/C(=C/c3ccc(N(CCC#N)CCC#N)cc3C)N=C2c2cc([N+](=O)[O-])ccc2Cl)cc1 |  | > 100 |  | > 100 |  | > 100 |  | > 100 |  | > 100 |  | > 100 |  | > 100 |  | > 100 |  |  | > 100
Cc1cc(=O)oc2c(C)c(OCCCOc3ccc4c(C)cc(=O)oc4c3C)ccc12 |  | > 100 |  | > 100 |  | > 100 |  | > 100 |  | > 100 |  | > 100 |  | > 100 |  | > 100 |  |  | > 100
CC1(C)C2CC(=O)C1(C)C(OCc1ccccc1)C2 (stereo unspecified) |  | 68.4 |  | 52.5 |  | > 100 |  | > 100 |  | > 100 |  | > 100 |  | 92.8 |  | > 100 |  | > 100 | 
CC/C(CC(=O)CCC(=O)Nc1ccccc1[N+](=O)[O-])=N/NC(=O)C[n+]1ccccc1 |  | > 100 |  | > 100 |  | > 100 |  | > 100 |  | > 100 |  | > 100 |  | > 100 |  | > 100 |  |  | > 100
